Measured values published in ChEMBL document CHEMBL5465560, “Selectivity Literature for EUbOPEN Chemogenomic Library” (2024).

Tests used:
[1] = molecular target: T1, Tyrosine-protein kinase JAK3 (Homo sapiens) (UniProt P52333); assay: Selectivity interaction (Kinase panel (literature)) EUB0001199aCl JAK3; details: at 1 µM
T1 sequence (whole entry): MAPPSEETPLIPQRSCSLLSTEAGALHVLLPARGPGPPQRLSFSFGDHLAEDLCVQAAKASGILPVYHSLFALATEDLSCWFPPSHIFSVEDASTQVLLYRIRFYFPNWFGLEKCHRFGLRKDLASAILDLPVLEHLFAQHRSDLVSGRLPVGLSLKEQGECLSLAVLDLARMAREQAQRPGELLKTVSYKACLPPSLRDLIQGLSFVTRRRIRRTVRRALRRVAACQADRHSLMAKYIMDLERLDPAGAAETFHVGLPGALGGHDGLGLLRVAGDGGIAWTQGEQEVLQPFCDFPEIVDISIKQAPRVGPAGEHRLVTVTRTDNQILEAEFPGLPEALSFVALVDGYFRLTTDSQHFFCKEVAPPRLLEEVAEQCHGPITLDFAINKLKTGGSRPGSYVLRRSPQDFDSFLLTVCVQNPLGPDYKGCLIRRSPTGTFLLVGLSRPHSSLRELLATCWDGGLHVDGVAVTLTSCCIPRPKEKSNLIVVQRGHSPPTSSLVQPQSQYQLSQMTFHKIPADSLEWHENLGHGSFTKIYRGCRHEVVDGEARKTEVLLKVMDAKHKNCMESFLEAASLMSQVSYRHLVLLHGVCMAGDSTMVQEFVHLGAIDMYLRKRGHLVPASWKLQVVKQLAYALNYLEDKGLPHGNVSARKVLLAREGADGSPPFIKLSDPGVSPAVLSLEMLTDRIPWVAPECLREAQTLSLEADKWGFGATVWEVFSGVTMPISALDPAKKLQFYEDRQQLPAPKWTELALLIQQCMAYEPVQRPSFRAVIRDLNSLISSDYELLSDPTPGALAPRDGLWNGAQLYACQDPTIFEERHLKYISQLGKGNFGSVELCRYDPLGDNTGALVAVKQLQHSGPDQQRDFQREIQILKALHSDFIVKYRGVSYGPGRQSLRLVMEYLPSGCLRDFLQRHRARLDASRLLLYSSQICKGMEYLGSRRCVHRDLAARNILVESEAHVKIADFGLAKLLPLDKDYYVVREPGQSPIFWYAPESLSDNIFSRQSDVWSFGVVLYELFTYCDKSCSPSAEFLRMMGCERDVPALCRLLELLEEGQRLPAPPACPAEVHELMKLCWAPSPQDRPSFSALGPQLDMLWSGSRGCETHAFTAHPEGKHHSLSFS

[2] = molecular target: T2, Dual specificity protein kinase TTK (Homo sapiens) (UniProt P33981); assay: Selectivity interaction (Kinase panel (Invitrogen)) EUB0000639a TTK; details: at 200 nM
T2 sequence (whole entry): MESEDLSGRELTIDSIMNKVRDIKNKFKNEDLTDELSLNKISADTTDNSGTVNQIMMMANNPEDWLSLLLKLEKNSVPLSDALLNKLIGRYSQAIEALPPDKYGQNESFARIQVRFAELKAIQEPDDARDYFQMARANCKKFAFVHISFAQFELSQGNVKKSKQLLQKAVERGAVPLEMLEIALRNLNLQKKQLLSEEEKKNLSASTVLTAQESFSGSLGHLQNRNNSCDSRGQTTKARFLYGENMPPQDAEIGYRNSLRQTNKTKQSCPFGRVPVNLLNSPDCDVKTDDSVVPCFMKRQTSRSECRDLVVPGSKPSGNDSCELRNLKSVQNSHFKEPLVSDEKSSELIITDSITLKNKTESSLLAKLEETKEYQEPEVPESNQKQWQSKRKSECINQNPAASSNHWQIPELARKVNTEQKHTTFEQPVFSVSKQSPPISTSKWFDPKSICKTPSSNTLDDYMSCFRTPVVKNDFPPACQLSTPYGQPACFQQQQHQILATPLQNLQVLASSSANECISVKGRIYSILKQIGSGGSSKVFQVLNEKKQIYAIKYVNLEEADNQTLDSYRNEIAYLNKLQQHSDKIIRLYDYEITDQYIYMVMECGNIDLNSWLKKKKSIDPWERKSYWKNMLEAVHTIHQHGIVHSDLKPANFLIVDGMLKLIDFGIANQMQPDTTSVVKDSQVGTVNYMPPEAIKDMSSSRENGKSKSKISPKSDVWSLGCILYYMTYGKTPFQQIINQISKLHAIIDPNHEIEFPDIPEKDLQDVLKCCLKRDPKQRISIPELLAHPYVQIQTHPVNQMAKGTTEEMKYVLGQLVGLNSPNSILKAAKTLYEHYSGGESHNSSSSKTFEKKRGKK

[3] = molecular target: T3, Dual specificity mitogen-activated protein kinase kinase 3 (Homo sapiens) (UniProt P46734); assay: Selectivity interaction (KinomeScan (DiscoverX)) EUB0000595a MAP2K3; details: at 10 µM
T3 sequence (whole entry): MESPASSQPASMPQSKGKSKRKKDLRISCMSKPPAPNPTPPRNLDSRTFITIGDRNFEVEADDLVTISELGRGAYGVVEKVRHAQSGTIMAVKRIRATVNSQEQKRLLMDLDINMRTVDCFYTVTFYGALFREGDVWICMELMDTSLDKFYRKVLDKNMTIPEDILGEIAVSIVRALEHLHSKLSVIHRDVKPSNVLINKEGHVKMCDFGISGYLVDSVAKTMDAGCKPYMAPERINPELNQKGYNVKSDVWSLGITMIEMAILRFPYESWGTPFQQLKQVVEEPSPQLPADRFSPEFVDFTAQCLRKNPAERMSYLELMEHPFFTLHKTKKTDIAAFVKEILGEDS

[4] = molecular target: Phosphorylase b kinase gamma catalytic chain, skeletal muscle/heart isoform (Homo sapiens) (UniProt Q16816); assay: Selectivity interaction (KinomeScan (DiscoverX)) EUB0000655a PHKG1; details: at 10 µM
Chain of Phosphorylase b kinase gamma catalytic chain, skeletal muscle/heart isoform (Homo sapiens) (Q16816 whole entry, looked up, canonical isoform): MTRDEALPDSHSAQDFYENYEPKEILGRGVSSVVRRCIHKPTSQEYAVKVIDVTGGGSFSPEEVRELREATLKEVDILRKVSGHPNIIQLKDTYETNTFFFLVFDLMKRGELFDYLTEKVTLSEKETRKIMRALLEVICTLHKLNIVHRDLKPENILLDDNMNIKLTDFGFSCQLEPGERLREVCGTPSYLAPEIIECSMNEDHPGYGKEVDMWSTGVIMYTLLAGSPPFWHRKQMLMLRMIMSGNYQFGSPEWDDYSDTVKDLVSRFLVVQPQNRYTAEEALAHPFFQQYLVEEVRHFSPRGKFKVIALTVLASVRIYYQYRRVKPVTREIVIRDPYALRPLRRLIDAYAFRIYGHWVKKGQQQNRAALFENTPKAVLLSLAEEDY

[5] = molecular target: RAC-alpha serine/threonine-protein kinase (Homo sapiens, UniProt P31749); assay: Selectivity interaction (KinomeScan (DiscoverX)) EUB0000655a AKT1; details: at 10 µM
Chain of RAC-alpha serine/threonine-protein kinase (P31749 whole entry): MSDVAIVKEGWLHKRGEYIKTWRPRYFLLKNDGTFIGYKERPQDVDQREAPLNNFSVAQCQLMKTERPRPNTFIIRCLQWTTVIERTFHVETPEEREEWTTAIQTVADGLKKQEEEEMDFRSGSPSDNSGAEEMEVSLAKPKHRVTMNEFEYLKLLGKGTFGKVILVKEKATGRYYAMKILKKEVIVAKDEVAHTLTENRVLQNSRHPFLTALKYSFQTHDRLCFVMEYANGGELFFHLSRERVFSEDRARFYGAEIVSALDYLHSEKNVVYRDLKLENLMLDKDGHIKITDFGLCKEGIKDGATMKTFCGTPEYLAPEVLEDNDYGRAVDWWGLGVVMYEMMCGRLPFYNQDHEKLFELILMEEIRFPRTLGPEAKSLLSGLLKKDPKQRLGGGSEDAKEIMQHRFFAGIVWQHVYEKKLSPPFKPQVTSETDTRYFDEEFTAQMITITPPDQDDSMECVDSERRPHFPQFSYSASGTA

[6] = molecular target: T4, Serine/threonine-protein kinase Nek2 (Homo sapiens) (UniProt P51955); assay: Selectivity interaction (KinomeScan (DiscoverX)) EUB0000695a NEK2; details: at 100 nM
T4 sequence (whole entry): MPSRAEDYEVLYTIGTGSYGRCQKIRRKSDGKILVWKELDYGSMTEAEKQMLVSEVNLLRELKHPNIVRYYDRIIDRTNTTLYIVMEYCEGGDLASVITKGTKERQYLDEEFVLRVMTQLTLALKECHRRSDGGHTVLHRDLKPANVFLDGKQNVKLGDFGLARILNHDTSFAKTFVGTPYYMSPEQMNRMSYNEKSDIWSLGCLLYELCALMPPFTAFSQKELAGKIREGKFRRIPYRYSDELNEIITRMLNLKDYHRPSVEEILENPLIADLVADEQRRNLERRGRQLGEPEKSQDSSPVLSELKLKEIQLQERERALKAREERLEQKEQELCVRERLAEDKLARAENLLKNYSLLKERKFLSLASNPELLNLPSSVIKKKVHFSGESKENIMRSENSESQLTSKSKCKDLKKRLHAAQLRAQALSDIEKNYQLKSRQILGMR

SMILES: CN1Cc2nccc(-c3cn(C)nc3-c3ccc(F)cc3)c2C1=O
- % of inhibition [1]: -2%

SMILES: CC[C@@H]1[C@H](F)C(=O)N[C@@H]1COc1nccc2cc(C(N)=O)c(OC)cc12 [ZIMLOVISERTIB]
- % of inhibition [2]: 8.59%

SMILES: COCC(=O)NC/C=C/c1ccc2ncnc(Nc3ccc(Oc4ccc(C)nc4)c(C)c3)c2c1 [CP-724714]
- % of control [3]: 100%

SMILES: CN(C)CCOc1ccc(-c2nc(-c3ccncc3)c(-c3ccc4c(c3)CC/C4=N\O)[nH]2)cc1
- % of control [4]: 94%
- % of control [5]: 97%

SMILES: Cc1cc(F)c(C(=O)Nc2cccc(-c3nncn3C(C)C)n2)cc1-n1cnc(C2CC2)c1
- % of control [6]: 100%
